Patent US20240327364A1, “THERAPEUTIC TARGETING OF GPR68 TO INDUCE FERROPTOSIS” (University Of Maryland, Baltimore, priority 2023, published 2024)

How the values were obtained:
[1] = target: T1, BRSK1 (Homo sapiens, UniProt Q8TDC3); test: KinomeScan; type: binding; details: read-out: % Control
T1 construct: purchased DiscoveRx (KinomeScan service)

[2] = target: T2, CAMKK2 (Homo sapiens, UniProt Q96RR4); test: KinomeScan; type: binding; details: read-out: % Control
T2 construct: purchased DiscoveRx (KinomeScan service)

[3] = target: T3, MAP4K4 (Homo sapiens, UniProt O95819); test: KinomeScan; type: binding; details: read-out: % Control
T3 construct: purchased DiscoveRx (Fremont, CA)

[4] = target: T4, MRCKB (Homo sapiens, UniProt Q9Y5S2); test: KinomeScan; type: binding; details: read-out: % Control
T4 construct: purchased DiscoveRx

[5] = target: T5, PIK3CA(E545K) (Homo sapiens, UniProt P42336, E545K); test: KinomeScan; type: binding; details: read-out: % Control
T5 construct: purchased DiscoveRx (Fremont, CA)

[6] = target: T6, ROS1 (Homo sapiens, UniProt P08922); test: KinomeScan; type: binding; details: read-out: % Control
T6 construct: purchased DiscoveRx (Fremont, CA)

[7] = target: T7, SRPK3 (Homo sapiens, UniProt Q9UPE1); test: KinomeScan; type: binding; details: read-out: % Control
T7 construct: purchased DiscoveRx (Fremont, CA)

[8] = target: T8, A2B (Homo sapiens, UniProt P29275); test: GPCR Profiler; type: cell-based
T8 construct: host or cells: Chem-1 cells with promiscuous Gα15

[9] = target: T9, P2Y1 (Homo sapiens, UniProt P47900); test: GPCR Profiler; type: cell-based
T9 construct: host or cells: Chem-1 cells expressing Gα15

[10] = target: T10, S1P1 (Homo sapiens, UniProt P21453); test: GPCR Profiler; type: cell-based
T10 construct: host or cells: Chem-1 cells with Gα15

[11] = target: GPR68 (Homo sapiens, UniProt Q15743); test: SRE-luciferase assay, GPR68-transfected HEK293 cells; type: cell-based; details: 10 μM OGM2
Procedure: 12-well plates of cells were transfected with 1 μg DNA using Lipofectamine 3000 with sre:luciferase and either the vector backbone, GFP, GPR68, GPR68-GFP, GPR4, or 336X-GFP. After 3 days, these cells were then lysed, and cell extracts were subjected to Steady-Glo luciferase assay (Promega™) according to the manufacturer's instructions. The results were normalized to cell titer, as determined using Cell Titer-Glo luminescence assay (Promega™). For some procedure, the cells were treated in serum-free medium, and were lysed on the third day.
Because GPR4, the paralog with highest homology with GPR68, was not covered in the initial GPCR profiling, whether OGM2 could inhibit GPR4 was tested by examining the effects of OGM2 on acid-induced serum responsive element (SRE) luciferase activity in HEK293 cells transfected with either GPR4 or GPR68. Mild acidification increased luciferase activity in GPR4 and GPR68 transfected cells above that of vector control.
Cas9^GPR68=GPR68 targeted sgRNA and Cas9; CTL=control; MoGPR68=GPR68 morpholino treatment. […] These cells were exposed to acidic media and assayed for luciferase activity as a readout of the receptor activity.

[12] = tested on: U138; test: 2D cell growth/viability; type: cell-based, human
Procedure: (§1) GBM neurospheres and low passage PDX models were plated in 96-well plates at 10,000 cells per well in 50 μL of neural stem cell media. The next day, the cells were treated with OGM2 compounds at the indicated concentrations, in triplicates, by adding an equal volume of medium containing 2× the final concentration of compound. Following 72 hours incubation under standard cell culture conditions, relative cell number was assessed using Cell Titer-Glo Luminescent Cell Viability Assay (Promega™) following the manufacturer's instructions. Luminescence was determined using a Cytation 5 reader and Gen5 software package (BioTek™). For U87 and U138 cell lines, one thousand cells were plated per well in a standard 96-well plate and allowed to attach for 24 hours before exposure to concentrations of vehicle, OGM2, or TMZ. Cells were treated for 72 hours and then stained with DAPI. A 10× magnification lens on a LionheartFX (BioTek™) was used to image the wells, and images were stitched together with Gen5 software (BioTek™). Automated nuclei counting was also done using the Gen5 software. Results reported as percent response relative to DMSO control. IC50 (the concentration causing 50% inhibition) was determined by GraphPad Prism™ version 6.07.
(§2) Temozolomide is the standard of care for glioblastoma but only works on 30% of patients. […]

[13] = tested on: U87; test: 2D cell growth/viability; type: cell-based, human; details: 72 hours
Procedure: as §1, §2

[14] = tested on: patient derived GBM lines; test: qPCR of ferroptosis markers; type: cell-based, human; details: 3 days
Excerpt: cDNAs were generated using High-Capacity cDNA Reverse Transcription Kit with RNase Inhibitor (ThermoFisher, […]). Samples were run on a Quant Studio 5 real-time PCR system (Applied Biosystems™) with TaqMan™ Universal Master Mix II, with UNG (ThermoFisher, 4440042). Primers used were GAPDH: Hs02786624g1, GPR68: Hs00268858s1, ATF4: Hs00909569_g1, CHAC1: Hs00225520_m1, SLC7A11: Hs00921938_m1, HMOX1: Hs01110250_m1, TFRC: Hs00951083_m1.
Separate biological replicates of pdx and neurosphere cells treated with OGM for 3 days were generated. RNA was isolated, cDNA generated and qPCR was conducted on select key markers of ferroptosis (ATF4. CHAC1, HMOX1, TFRC, and SLC7A11) that were seen as dysregulated in RNAseq.

T10 sequence (P21453 whole entry, species assumed): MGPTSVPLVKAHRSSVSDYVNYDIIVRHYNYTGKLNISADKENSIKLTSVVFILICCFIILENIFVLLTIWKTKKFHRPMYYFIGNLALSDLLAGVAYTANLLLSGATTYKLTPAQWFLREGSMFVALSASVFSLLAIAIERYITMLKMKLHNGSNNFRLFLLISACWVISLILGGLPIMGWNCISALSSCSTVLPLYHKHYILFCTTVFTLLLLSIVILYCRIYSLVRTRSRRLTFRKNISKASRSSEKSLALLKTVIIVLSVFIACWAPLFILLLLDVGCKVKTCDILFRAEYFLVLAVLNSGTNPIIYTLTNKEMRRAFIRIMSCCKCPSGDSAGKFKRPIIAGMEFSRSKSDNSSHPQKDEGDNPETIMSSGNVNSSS
T8 sequence (P29275 whole entry): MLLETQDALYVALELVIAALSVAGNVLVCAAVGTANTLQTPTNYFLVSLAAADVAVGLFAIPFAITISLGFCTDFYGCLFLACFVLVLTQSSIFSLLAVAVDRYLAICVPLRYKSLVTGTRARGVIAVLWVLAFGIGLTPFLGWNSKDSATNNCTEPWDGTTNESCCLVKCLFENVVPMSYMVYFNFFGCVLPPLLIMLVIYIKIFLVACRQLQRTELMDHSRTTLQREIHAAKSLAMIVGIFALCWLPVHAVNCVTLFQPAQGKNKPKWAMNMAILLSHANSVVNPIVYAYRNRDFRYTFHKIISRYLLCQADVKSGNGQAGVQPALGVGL
T9 sequence (P47900 whole entry, species assumed): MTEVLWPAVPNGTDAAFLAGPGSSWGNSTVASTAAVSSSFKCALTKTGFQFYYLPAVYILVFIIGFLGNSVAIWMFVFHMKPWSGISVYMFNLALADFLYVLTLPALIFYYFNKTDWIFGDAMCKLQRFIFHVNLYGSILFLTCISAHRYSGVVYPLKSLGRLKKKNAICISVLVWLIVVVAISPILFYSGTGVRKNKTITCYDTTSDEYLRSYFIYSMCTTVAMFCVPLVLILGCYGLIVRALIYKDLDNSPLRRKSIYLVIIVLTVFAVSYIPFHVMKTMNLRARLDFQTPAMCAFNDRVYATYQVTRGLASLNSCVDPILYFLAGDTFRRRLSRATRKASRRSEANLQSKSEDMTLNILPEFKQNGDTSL
T2 sequence (Q96RR4 whole entry): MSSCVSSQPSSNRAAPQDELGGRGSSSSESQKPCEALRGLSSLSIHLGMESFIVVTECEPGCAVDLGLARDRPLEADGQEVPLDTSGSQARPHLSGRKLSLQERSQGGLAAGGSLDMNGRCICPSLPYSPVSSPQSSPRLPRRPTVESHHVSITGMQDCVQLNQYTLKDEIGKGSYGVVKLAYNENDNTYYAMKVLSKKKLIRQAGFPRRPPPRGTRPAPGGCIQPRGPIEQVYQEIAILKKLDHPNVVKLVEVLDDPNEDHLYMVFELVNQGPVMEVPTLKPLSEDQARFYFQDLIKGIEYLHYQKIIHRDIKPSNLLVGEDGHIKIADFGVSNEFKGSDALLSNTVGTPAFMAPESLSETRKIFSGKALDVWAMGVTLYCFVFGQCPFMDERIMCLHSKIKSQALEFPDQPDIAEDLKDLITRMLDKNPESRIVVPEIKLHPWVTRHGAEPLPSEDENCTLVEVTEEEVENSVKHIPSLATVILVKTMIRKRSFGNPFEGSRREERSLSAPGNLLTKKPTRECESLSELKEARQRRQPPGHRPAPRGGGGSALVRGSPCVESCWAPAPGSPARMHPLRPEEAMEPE
T1 sequence (Q8TDC3 whole entry): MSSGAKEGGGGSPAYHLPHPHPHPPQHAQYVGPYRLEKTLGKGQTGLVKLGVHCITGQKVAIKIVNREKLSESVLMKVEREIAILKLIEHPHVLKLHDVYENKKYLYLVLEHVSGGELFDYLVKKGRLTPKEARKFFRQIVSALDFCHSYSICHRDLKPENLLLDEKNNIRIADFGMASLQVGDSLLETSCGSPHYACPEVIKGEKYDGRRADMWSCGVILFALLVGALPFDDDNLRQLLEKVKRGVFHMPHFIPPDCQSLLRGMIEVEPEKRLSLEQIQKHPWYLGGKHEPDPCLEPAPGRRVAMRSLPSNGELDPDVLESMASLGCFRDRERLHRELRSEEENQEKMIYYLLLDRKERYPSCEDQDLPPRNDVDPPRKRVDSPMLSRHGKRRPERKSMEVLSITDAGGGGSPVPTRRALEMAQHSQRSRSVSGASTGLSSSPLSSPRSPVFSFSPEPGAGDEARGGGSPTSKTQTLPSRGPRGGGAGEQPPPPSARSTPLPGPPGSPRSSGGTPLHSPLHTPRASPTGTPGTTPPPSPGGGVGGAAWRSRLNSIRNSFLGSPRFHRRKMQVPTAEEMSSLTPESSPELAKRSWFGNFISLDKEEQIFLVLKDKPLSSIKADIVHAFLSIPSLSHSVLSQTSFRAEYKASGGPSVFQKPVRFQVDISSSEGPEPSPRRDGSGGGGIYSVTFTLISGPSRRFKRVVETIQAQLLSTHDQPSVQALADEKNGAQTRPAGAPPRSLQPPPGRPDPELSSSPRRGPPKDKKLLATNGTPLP
T4 sequence (Q9Y5S2 whole entry): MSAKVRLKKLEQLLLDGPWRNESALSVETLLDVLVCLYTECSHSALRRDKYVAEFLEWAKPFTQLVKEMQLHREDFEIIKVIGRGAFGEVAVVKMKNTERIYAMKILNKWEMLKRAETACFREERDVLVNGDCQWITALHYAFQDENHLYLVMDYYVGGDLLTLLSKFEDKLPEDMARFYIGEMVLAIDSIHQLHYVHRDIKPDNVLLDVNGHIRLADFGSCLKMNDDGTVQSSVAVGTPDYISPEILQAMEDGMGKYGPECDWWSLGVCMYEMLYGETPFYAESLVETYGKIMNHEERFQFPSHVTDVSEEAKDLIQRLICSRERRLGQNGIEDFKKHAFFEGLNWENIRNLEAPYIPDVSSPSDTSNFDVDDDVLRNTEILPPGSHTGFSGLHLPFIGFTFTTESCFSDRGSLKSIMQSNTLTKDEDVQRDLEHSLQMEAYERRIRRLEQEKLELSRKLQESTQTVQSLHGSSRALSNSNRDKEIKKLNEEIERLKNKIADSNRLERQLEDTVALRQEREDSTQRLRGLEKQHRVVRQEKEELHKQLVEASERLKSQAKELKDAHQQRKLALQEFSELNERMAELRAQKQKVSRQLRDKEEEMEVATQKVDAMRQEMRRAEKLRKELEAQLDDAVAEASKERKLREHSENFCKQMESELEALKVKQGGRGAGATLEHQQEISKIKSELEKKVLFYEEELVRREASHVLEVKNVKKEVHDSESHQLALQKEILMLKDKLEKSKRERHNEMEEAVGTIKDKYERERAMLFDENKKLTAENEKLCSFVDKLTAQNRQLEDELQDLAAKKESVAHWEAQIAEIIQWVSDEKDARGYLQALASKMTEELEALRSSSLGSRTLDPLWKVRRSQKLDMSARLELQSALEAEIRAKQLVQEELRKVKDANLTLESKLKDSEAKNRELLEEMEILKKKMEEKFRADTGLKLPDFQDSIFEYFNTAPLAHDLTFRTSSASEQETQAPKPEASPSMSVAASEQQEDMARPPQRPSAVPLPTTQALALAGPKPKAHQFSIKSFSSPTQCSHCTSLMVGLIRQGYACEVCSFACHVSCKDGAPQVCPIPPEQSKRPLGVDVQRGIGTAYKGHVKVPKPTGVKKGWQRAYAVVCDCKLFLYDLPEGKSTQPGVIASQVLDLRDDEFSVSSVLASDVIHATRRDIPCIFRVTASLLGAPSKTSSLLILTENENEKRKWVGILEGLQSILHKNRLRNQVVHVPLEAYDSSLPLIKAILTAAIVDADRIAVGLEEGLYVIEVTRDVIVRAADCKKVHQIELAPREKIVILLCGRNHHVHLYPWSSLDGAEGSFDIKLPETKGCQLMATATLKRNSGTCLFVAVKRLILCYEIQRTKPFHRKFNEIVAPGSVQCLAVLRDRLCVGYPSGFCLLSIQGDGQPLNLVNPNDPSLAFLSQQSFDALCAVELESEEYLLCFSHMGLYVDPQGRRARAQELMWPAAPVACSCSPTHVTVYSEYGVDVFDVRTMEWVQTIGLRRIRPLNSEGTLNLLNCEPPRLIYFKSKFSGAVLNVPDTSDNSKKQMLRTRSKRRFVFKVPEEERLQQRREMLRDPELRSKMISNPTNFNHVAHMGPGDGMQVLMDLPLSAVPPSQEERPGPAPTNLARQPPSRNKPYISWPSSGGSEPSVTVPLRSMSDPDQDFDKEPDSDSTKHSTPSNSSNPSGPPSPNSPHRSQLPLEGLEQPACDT
T7 sequence (Q9UPE1 whole entry): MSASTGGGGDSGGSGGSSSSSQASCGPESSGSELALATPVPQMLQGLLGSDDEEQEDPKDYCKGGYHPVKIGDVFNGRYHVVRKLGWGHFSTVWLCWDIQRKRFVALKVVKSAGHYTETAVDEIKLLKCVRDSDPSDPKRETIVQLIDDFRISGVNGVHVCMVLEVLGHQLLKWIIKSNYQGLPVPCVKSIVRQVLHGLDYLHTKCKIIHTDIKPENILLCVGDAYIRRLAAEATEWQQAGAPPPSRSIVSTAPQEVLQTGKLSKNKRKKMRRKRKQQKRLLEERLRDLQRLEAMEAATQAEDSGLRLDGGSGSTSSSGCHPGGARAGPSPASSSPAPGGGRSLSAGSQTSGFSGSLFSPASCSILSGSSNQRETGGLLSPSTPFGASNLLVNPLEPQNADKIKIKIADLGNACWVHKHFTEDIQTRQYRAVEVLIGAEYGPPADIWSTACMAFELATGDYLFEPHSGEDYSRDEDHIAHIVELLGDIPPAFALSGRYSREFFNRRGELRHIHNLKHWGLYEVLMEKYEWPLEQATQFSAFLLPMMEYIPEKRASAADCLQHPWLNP

SMILES | remaining binding at 10 µM [1] [%] | remaining binding at 10 µM [2] [%] | remaining binding at 10 µM [3] [%] | remaining binding at 10 µM [4] [%] | remaining binding at 10 µM [5] [%] | remaining binding at 10 µM [6] [%] | remaining binding at 10 µM [7] [%] | Antagonism ([8]; 10 uM) | Agonism ([8]; 12.5 uM) | Antagonism ([9]; 10 uM) | Agonism ([9]; 12.5 uM) | Antagonism ([10]; 10 uM) | Agonism ([10]; 12.5 uM) | acid-induced SRE-luciferase activity [11] | cell growth in 2D culture [12] | cell growth, comparison with Temozolomide [13] | expression of ATF4, CHAC1, HMOX1, TFRC, SLC7A11 [14]
CCc1ccc2c(c1)C1(NN=C(c3cccc4ccccc34)S1)C(=O)N2 (centres unmarked) [OGM1, 5-ethyl-5′-naphthalen-1-ylspiro[1H-indole-3,2′-3H-1,3,4-thiadiazole]-2-one] | 100 | 89 | 100 | 100 | 100 | 100 | 100 | −12.8 | 4.4 | −6.3 | 1.7 | 3.1 | −0.4 |  |  |  | 
CCc1ccc2c(c1)C1(NN=C(c3ccccc3)S1)C(=O)N2 (centres unmarked) [OGM2] |  |  |  |  |  |  |  |  |  |  |  |  |  | completely inhibited the signal | caused dose-dependent inhibition of U138 cell growth | more potent inhibitor of U87 cell growth in 2D cell assay than Temozolomide | induced key markers of ferroptosis
